Experiments:
Details in all cases: 72 h
Calu-3 [1] = test: relative viability EC50 (midpoint between 100% and the lowest measured viability); higher = less toxic
HepG2 [2] = test: as above
Caco-2 [3] = test: as above
U2OS [4] = test: as above
Vero E6 [5] = test: as above
Calu-3 [6] = test: drug sensitivity score (DSS) for viability; higher = more toxic; extreme values may be limits of the assay
HepG2 [7] = test: as above
Caco-2 [8] = test: as above
U2OS [9] = test: as above
Vero E6 [10] = test: as above
Calu-3 [11] = test: cell viability relative to DMSO; higher = less toxic
HepG2 [12] = test: as above
Caco-2 [13] = test: as above
U2OS [14] = test: as above
Vero E6 [15] = test: as above

Structure (SMILES)	relative viability EC50 (Calu-3 [1]) [µM]	relative viability EC50 (HepG2 [2]) [µM]	relative viability EC50 (Caco-2 [3]) [µM]	relative viability EC50 (U2OS [4]) [µM]	relative viability EC50 (Vero E6 [5]) [µM]	drug sensitivity score (Calu-3 [6])	drug sensitivity score (HepG2 [7])	drug sensitivity score (Caco-2 [8])	drug sensitivity score (U2OS [9])	drug sensitivity score (Vero E6 [10])	cell viability (Calu-3 [11]; 1 nM) [%]	cell viability (Calu-3 [11]; 10 nM) [%]	cell viability (Calu-3 [11]; 100 nM) [%]	cell viability (Calu-3 [11]; 1000 nM) [%]	cell viability (Calu-3 [11]; 10000 nM) [%]	cell viability (HepG2 [12]; 1 nM) [%]	cell viability (HepG2 [12]; 10 nM) [%]	cell viability (HepG2 [12]; 100 nM) [%]	cell viability (HepG2 [12]; 1000 nM) [%]	cell viability (HepG2 [12]; 10000 nM) [%]	cell viability (Caco-2 [13]; 1 nM) [%]	cell viability (Caco-2 [13]; 10 nM) [%]	cell viability (Caco-2 [13]; 100 nM) [%]	cell viability (Caco-2 [13]; 1000 nM) [%]	cell viability (Caco-2 [13]; 10000 nM) [%]	cell viability (U2OS [14]; 1 nM) [%]	cell viability (U2OS [14]; 10 nM) [%]	cell viability (U2OS [14]; 100 nM) [%]	cell viability (U2OS [14]; 1000 nM) [%]	cell viability (U2OS [14]; 10000 nM) [%]	cell viability (Vero E6 [15]; 1 nM) [%]	cell viability (Vero E6 [15]; 10 nM) [%]	cell viability (Vero E6 [15]; 100 nM) [%]	cell viability (Vero E6 [15]; 1000 nM) [%]	cell viability (Vero E6 [15]; 10000 nM) [%]
CCCCOc1c(C(=O)c2c(F)cc(C)cc2F)c[nH]c2nncc1-2	> 10	> 10	> 10	> 10	> 10	0	2.9	2.7	0	1.6	94.9	86.1	71.1	60.7	89.4	96.7	99.8	95.1	81.4	80.8	104	102	94	82.9	77.7	98	101	102	113	95.6	102	97.4	94.1	84.5	84.9
CCCN1CCO[C@@H]2c3cc(O)ccc3OC[C@H]21	> 10	> 10	> 10	> 10	> 10	0	0	0	0	0	102	110	95	105	90.6	106	104	100	92	105	101	116	97.8	109	102	102	106	97.1	102	99.7	99.7	101	102	101	95.7
CCn1c(=O)n(C2=C(CO)CN(CC3CCCCCCC3)CC2)c2ccccc21 [trap-101]	> 10	> 10	> 10	> 10	> 10	0	0	0.3	0	0	99.6	106	94.5	104	92.6	97.8	96.7	91.5	96.5	98	102	89.9	96.7	93.6	83.5	98.2	101	97.4	98.8	93.8	98	96.8	95.6	96.3	98.9
CN1CCN2c3c(cccc31)[C@@H]1CN(CCCC(=O)c3ccc(F)cc3)CC[C@@H]12 [lumateperone]	> 10	> 10	> 10	> 10	> 10	0	0.5	1	0	0	101	112	98.3	110	92.3	100	91.6	103	101	80.7	96.5	100	97.1	97.6	78.8	96.6	102	94.1	99.6	89.1	98.4	92.7	101	99.6	97.3
O=C(c1ccc(CN2CCOCC2)cc1)N1CCN(C2CC2)CC1 [bavisant]	> 10	> 10	> 10	> 10	> 10	0.5	0	0	0	0	86.9	95	87.1	88.9	89.2	108	104	90.6	107	94.4	104	102	97.7	89.6	98.9	102	97.6	103	101	99.8	109	104	104	104	99.6
CCCCCCCCCC(=O)O[C@H]1CC[C@H]2[C@@H]3CCC4=CC(=O)CC[C@@H]4[C@H]3CC[C@]12C [Nandrolone decanoate]	> 10	> 10	> 10	> 10	> 10	0	0	0	0	0	94.1	88.6	83	90.9	89	104	95.7	97.9	102	101	90.7	104	96.2	106	96.4	102	99.3	99.1	101	94	108	97.1	102	97.5	104
CCS(=O)(=O)N(C)[C@H]1c2cc(C#N)ccc2OC(C)(C)[C@@H]1O [chromanol-293B-(-)-[3R,4S]]	> 10	> 10	> 10	> 10	> 10	0	0	0	0	0	105	99.2	95.5	106	90.6	104	102	91.6	103	98.7	94.3	93.2	90.4	93.3	88.9	93	93.8	99.1	94.3	95.2	96.6	107	98.2	92.5	110
N[C@H](C(=O)O)[C@H](O)c1ccc(O)c(O)c1 [droxidopa]	> 10	> 10	> 10	> 10	> 10	0	0	0	0	0	98.8	98.1	99.7	87	102	90.7	95.5	98.8	114	104	95.4	102	103	96.4	102	98	95.6	97.5	97.2	100	95.1	102	96.8	98.5	104
COc1c(C)c(C(=O)c2ccc(N)c(C(=O)O)c2)n2ccccc12	> 10	> 10	> 10	> 10	> 10	0	0	0	0	0	96.6	102	96	98.2	103	100	108	101	93.4	119	89.7	88.7	87.1	100	106	99.9	99.2	96.9	98.9	90.4	99.9	98.7	99.4	100	106
CCC(CC)CC1(C(=O)Nc2ccccc2SC(=O)C(C)C)CCCCC1 [dalcetrapib]	> 10	> 10	> 10	> 10	> 10	0	0	0	0	0	96	95.4	103	90	97.8	88.6	103	88	98.6	90.2	99.9	97.1	94.3	93.7	107	96.9	97.1	108	98.3	104	98.4	99.2	101	102	101
CN1CCN(C(=O)CN[C@@H]2C[C@H]2c2ccc(OCc3ccccc3)cc2)CC1 [RN-1]	> 10	> 10	> 10	> 10	> 10	0	0.7	1.5	0	0.1	89.9	82.5	96.1	94.5	108	87.4	103	99.9	94.2	84.9	109	95.2	90.2	89.2	83.3	103	98.3	102	96.7	96	99.5	102	105	92.2	89.1
